Results: patent US7772188B2, “Methods and compositions for the treatment of gastrointestinal disorders” (priority 2003, dated 2010)
No end group written: not given here.

What was measured:
gastrointestinal transit = assay: Murine gastrointestinal transit (GIT) assay, charcoal front; type: in vivo, mice; settings: for intestinal transit rate versus dosage: recombinantly synthesized peptides, FIG. 4a; for gastrointestinal transit rate: SEQ ID NO:4 and Zelnorm 0.1 mg/kg, FIG. 3a/3b
Description: In order to determine whether the peptides increase the rate of gastrointestinal transit, the peptides and controls were tested using a murine gastrointestinal transit (GIT) assay (Moon et al. Infection and Immunity 25:127, 1979). In this assay, charcoal, which can be readily visualized in the gastrointestinal tract is administered to mice after the administration of a test compound. The distance traveled by the charcoal is measured and expressed as a percentage of the total length of the […].
Mice were fasted with free access to water for 12 to 16 hours before the treatment with peptide or control buffer. The peptides were orally administered at 1 μg/kg-1 mg/kg of peptide in buffer (20 mM Tris pH 7.5) 7 minutes before being given an oral dose of 5% Activated Carbon (Aldrich 242276-250G). Control mice were administered buffer only before being given a dose of Activated Carbon. After 15 minutes, the mice were sacrificed and their intestines from the stomach to the cecum were dissected. The total length of the intestine as well as the distance traveled from the stomach to the charcoal front was measured for each animal and the results are expressed as the percent of the total length of the intestine traveled by the charcoal front. All results are reported as the average of 10 mice±standard deviation. A comparison of the distance traveled by the charcoal between the mice treated with peptide versus the mice treated with vehicle alone was performed using a Student's t test and a statistically significant difference was considered for P<0.05. P-values are calculated using a two-sided T-Test assuming unequal variances.
The identical experiment was performed to determine if SEQ ID NO:3 is effective in a chronic dosing treatment regimen. Briefly, 8 week old CD1 female mice are dosed orally once a day for 5 days with either SEQ ID NO:3 (0.06 mg/kg or 0.25 mg/kg in 20 mM Tris pH 7.5) or vehicle alone (20 mM Tris pH 7.5). On the 5th day, a GIT assay is performed identical to that above except 200 μl of a 10% charcoal solution is administered. […] The results are shown side by side with acute dosing (1 day).

intestinal secretion = assay: Suckling mouse model of intestinal secretion (SuMi assay); type: in vivo; settings: suckling mice
Description: In this model a test compound is administered to suckling mice that are between 7 and 9 days old. After the mice are sacrificed, the gastrointestinal tract from the stomach to the cecum is dissected (“guts”). The remains (“carcass”) as well as the guts are weighed and the ratio of guts to carcass weight is calculated. If the ratio is above 0.09, one can conclude that the test compound increases intestinal secretion. […] The effect of Zelnorm® was also studied.

PBQ-induced writhing = assay: Phenylbenzoquinone (PBQ)-induced writhing model
intestinal GC-C receptor = target: T1, intestinal GC-C receptor (Homo sapiens, UniProt P25092); assay: Intestinal GC-C receptor activity assay (cyclic GMP by EIA in T84 cells); type: cell-based; settings: chemically synthesized peptides, FIG. 2
T1 construct: host or cells: T84 human colon carcinoma cells
Description: The ability of SEQ ID NO:5, SEQ ID NO:4, and SEQ ID NO:3 to activate the intestinal GC-C receptor was assessed in an assay employing the T84 human colon carcinoma cell line (American Type Culture Collection (Bethesda, Md.)). For the assays cells were grown to confluency in 24-well culture plates with a 1:1 mixture of Ham's F12 medium and Dulbecco's modified Eagle's medium (DMEM), supplemented with 5% fetal calf serum and were used at between passages 54 and 60.
Briefly, monolayers of T84 cells in 24-well plates were washed twice with 1 ml/well DMEM, then incubated at 37° C. for 10 min with 0.45 ml DMEM containing 1 mM isobutylmethylxanthine (IBMX), a cyclic nucleotide phosphodiesterase inhibitor. Test peptides (50 μl) were then added and incubated for 30 minutes at 37° C. The media was aspirated and the reaction was then terminated by the addition of ice cold 0.5 ml of 0.1N HCl. The samples were held on ice for 20 minutes and then evaporated to dryness using a heat gun or vacuum centrifugation. The dried samples were resuspended in 0.5 ml of phosphate buffer provided in the Cayman Chemical Cyclic GMP EIA kit (Cayman Chemical, Ann Arbor, Mich.). Cyclic GMP was measured by EIA according to procedures outlined in the Cayman Chemical Cyclic GMP EIA kit.

[1] = target: T2, GC-C receptors found in rat intestinal mucosa (Rattus norvegicus, UniProt P23897); parameters: Intestinal mucosa was extruded from the intestine by gentle pressure; from tissue; host or cells: rat small-intestinal epithelial cells (mucosa), used as a cell suspension; settings: same assay, observed by Giannella et al.; cited from earlier work
T2 sequence (P23897 23-1072): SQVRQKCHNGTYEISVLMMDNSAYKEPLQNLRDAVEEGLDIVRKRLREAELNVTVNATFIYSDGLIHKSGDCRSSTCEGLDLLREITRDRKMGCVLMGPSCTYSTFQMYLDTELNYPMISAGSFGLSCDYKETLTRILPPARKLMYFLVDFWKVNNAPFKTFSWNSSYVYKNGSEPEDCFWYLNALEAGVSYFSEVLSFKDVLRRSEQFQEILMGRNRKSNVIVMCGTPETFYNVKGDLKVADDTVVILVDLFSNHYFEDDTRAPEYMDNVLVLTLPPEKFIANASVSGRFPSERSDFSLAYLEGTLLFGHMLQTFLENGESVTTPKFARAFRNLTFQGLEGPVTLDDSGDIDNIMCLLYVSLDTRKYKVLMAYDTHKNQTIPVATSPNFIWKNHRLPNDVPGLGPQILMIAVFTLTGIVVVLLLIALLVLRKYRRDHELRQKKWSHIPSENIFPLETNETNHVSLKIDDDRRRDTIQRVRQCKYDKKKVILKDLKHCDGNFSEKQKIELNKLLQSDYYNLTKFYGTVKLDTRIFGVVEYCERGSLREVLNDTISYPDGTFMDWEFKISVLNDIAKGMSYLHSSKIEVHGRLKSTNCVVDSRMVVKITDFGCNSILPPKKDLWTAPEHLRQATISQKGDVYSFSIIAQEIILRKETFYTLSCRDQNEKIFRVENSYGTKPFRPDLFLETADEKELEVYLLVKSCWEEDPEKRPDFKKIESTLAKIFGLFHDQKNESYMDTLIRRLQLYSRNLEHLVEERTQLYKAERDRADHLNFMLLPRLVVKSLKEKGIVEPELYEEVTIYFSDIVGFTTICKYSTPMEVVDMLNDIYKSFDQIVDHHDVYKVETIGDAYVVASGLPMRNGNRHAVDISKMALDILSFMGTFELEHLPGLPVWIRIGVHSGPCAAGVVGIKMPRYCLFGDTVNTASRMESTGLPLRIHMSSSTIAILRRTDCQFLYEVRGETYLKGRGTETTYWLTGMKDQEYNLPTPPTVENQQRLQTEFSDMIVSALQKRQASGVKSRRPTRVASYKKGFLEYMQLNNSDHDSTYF

[2] = recombinant peptides, dose response, FIG. 6a

T1 sequence (P25092 24-1073): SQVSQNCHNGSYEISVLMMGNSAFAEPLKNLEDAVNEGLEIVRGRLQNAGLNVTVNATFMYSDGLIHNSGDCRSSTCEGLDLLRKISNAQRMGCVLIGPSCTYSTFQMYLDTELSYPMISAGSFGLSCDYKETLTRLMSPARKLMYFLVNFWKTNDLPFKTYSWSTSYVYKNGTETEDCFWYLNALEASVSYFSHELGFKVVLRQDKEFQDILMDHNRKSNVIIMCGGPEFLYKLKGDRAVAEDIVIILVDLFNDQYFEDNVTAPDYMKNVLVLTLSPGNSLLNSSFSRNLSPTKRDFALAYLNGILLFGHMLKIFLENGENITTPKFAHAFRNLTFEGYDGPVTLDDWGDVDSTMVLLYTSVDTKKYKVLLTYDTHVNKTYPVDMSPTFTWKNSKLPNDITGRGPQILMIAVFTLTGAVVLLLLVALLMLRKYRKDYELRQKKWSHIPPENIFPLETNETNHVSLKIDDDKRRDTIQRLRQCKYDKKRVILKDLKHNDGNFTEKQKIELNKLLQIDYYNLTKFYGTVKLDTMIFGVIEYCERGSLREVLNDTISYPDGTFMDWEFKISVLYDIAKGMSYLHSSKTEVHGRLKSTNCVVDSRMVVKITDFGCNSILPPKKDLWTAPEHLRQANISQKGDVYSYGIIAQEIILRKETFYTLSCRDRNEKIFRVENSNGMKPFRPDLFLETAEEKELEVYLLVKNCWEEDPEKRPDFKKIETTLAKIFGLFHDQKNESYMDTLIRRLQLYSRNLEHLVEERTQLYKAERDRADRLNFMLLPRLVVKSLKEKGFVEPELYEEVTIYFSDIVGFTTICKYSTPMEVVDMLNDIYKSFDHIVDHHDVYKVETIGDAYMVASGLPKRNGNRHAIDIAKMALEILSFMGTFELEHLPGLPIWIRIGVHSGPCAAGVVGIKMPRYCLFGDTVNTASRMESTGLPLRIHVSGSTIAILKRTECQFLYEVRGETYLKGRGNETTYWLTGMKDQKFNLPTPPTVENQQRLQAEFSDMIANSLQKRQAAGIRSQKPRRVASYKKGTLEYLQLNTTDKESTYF

Row | Molecule | intestinal transit rate versus dosage (gastrointestinal transit; acute, oral, mice) | intestinal secretion (guts to carcass weight ratio) (intestinal secretion; [2]) | antinociceptive effect relative to indomethacin (PBQ-induced writhing; mouse PBQ writhing, visceral pain model) | writhings compared to the vehicle control (PBQ-induced writhing; mouse, oral, 1 mg/kg dose, FIG. 8a) | activity in GC-C receptor activity assay (intestinal GC-C receptor) | gastrointestinal transit rate (gastrointestinal transit; acute, oral, mice) | intestinal transit rate versus Tris buffer or equivalent dose of Zelnorm (gastrointestinal transit; acute, oral, mice, chemically synthesized peptides, FIG. 4b) | intestinal secretion (guts to carcass weight ratio) (intestinal secretion; dose response, FIG. 5a/5b) | Kd [1] [nM] | effect in mouse gastrointestinal motility assay upon chronic dosing (gastrointestinal transit; oral once a day for 5 days, CD1 female mice, FIG. 4c) | intestinal secretion (guts to carcass weight ratio) (intestinal secretion; 0.2 mg/kg, FIG. 5)
1 | NSSNYCCEYCCNPACTGCY (cysteine pairing not given here) [SEQ ID NO:5] | intestinal transit rate increases with an increasing dosage | increase intestinal secretion | antinociceptive effects in this visceral pain model comparable to the intermediate doses of indomethacin | Significant reductions in writhings |  |  |  |  |  |  | 
2 | NSSNYCCELCCNPACTGCY [SEQ ID NO:4, Asn Ser Ser Asn Tyr Cys Cys Glu Leu Cys Cys Asn Pro Ala Cys Thr Gly Cys Tyr] | intestinal transit rate increases with an increasing dosage | increase intestinal secretion |  |  | activity comparable to SEQ ID NO:4 | increase gastrointestinal transit rate | increase intestinal transit rates more than either Tris buffer alone or an equivalent dose of Zelnorm® | increase intestinal secretion | ~13 |  | 
3 | [H]/N=C(/NCCCCC)N/N=C/c1c[nH]c2ccc(OC)cc12 [Zelnorm®, tegaserod] |  |  |  |  |  | increase gastrointestinal transit rate |  |  |  | effective | does not increase intestinal secretion
